In publication PMC4829233, “Identification of Novel Chemical Scaffolds Inhibiting Trypanothione Synthetase from Pathogenic Trypanosomatids” (PLoS Neglected Tropical Diseases, 2016):
Read-outs that look alike come from different tables or passages of the source.

Legend:
LiTryS = test system: LiTryS; set-up: method as in PMID 24853758; settings: ref [20]; cited from earlier work
[1] = biological target: LiTryS (Leishmania infantum trypanothione synthetase) (Leishmania infantum, UniProt A4I2Z3); test: biochemical; format: biochemical
[2] = biological target: TbTryS (Trypanosoma brucei trypanothione synthetase) (Trypanosoma brucei brucei, UniProt Q8IEX1); test: biochemical
[3] = test system: Leishmania infantum promastigotes; set-up: method as in PMID 24853758; settings: ref [20], read-out: L. infantum EC50; cited from earlier work
[4] = biological target: TcTryS (Trypanosoma cruzi trypanothione synthetase) (Trypanosoma cruzi, UniProt Q9GT49); test: biochemical; format: biochemical; settings: read-out: % TcTryS inhibition ± 2σn-1
Chain of TcTryS (Trypanosoma cruzi trypanothione synthetase) (Q9GT49 whole entry): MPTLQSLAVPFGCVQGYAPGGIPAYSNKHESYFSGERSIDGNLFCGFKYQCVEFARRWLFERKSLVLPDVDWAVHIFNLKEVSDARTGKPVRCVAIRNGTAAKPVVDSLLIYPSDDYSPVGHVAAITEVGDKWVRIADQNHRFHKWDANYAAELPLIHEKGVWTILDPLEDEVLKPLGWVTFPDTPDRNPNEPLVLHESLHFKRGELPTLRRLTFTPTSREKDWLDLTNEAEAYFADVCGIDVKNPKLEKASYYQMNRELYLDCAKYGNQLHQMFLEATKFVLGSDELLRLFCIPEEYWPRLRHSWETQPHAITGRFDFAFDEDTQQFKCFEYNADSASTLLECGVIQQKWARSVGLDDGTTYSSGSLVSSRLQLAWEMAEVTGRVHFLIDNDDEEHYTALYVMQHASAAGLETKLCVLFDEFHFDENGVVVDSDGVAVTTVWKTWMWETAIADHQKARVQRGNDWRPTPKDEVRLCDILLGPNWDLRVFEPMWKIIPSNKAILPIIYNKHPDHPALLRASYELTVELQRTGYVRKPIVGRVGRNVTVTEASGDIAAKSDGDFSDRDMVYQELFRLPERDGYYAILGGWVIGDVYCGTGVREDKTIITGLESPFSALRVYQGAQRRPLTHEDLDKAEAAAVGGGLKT

Chain of LiTryS (Leishmania infantum trypanothione synthetase) (A4I2Z3 1-652): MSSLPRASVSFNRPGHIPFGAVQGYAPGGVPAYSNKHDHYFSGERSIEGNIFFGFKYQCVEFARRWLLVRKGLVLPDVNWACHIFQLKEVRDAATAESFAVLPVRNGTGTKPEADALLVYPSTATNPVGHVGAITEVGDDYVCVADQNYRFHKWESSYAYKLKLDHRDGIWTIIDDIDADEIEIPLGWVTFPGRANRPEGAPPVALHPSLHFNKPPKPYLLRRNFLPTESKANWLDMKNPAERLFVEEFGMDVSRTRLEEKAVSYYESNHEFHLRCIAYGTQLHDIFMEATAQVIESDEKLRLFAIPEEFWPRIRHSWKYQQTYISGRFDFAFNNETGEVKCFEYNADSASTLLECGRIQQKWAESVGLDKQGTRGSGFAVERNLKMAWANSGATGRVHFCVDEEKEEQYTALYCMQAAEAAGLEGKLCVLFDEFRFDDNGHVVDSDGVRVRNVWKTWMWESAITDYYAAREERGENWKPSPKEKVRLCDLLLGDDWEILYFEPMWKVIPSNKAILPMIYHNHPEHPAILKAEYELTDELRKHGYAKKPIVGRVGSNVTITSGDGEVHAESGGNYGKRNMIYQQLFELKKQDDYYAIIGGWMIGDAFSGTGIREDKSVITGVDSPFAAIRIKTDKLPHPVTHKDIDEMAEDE
Chain of TbTryS (Trypanosoma brucei trypanothione synthetase) (Q8IEX1 1-627): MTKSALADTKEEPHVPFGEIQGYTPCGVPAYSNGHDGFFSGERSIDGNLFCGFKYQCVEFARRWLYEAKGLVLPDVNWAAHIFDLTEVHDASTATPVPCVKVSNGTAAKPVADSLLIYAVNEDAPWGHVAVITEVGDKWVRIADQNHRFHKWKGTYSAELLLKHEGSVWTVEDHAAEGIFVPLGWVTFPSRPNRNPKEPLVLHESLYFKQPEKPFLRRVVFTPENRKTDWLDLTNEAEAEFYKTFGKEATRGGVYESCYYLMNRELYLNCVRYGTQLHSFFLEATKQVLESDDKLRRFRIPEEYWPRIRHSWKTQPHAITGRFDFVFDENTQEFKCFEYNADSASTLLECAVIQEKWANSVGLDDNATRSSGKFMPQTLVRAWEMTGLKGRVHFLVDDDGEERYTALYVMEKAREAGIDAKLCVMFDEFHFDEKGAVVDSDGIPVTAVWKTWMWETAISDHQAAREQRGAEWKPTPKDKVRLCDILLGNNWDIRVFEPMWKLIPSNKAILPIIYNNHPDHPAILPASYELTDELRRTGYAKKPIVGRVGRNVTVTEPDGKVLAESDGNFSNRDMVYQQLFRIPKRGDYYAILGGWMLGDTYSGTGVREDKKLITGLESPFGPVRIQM

SMILES: CNCCNC(=O)CN1C(=O)Cc2c([nH]c3cc(C(F)(F)F)ccc23)-c2ccccc21 [FS-554]
- IC50 (LiTryS): 350 nM
- slope plot, LiTryS, representative dose-response plot [1]: 0.37 ± 0.03
- IC50 ([1]; n = 4, read-out: LiTryS IC50, representative dose-response plot): 320 ± 730 nM
- IC50 ([1]; read-out: LiTryS IC50): 350 nM
- IC50 [2]: ~75000 nM
- inhibition at 75 µM [2]: ~50%
- EC50 [3]: 112300 ± 1100 nM
- inhibition at 30 µM [4]: ~50%
